“Also recorded” adds a separate entry of the source.
Experiments:
[1] = tested on: Cellulolytic Enzyme Composition #2; experiment: mini-scale PCS hydrolysis by Cellulolytic Enzyme Composition #2; assay type: biochemical, Trichoderma reesei
Method: Corn stover was pretreated at the U.S. Department of Energy National Renewable Energy Laboratory (NREL), […], Colo., USA, using dilute sulfuric acid. The following conditions were used for the pretreatment: 1.4 wt % sulfuric acid at 195° C. for 4.5 minutes. According to limit digestion with excess cellulase enzymes, the water-insoluble solids in the pretreated corn stover (PCS) contained 59.5% cellulose. Prior to use, the PCS was washed with a large volume of deionized water until soluble acid and sugars were removed. The dry weight of the water-washed PCS was 19.16%.
The effect of various salts (FeSO4, FeCl2, NaCl, Na2SO4, MnSO4, MnCl2) was determined in the hydrolysis of PCS by Cellulolytic Enzyme Composition #2. […] Cellulolytic Enzyme Composition #2 was added at 0.25 g per liter. Reactions without the addition of the salt served as controls. The capped tubes were incubated at 50° C. in an INNOVA® 4080 incubator shaker (New Brunswick Scientific Co., Inc., Edison, N.J., USA) at 150 rpm.
(§1) Aliquots of the suspensions, sampled over time, were filtered by centrifugation using a 0.45 μm MULTISCREEN® HV membrane (Millipore, Billerica, Mass., USA) at 2000 rpm for 15 minutes using a SORVALL® RT7 centrifuge (Thermo Fisher Scientific, Waltham, Mass., USA). When not used immediately, the filtered sugary aliquots were frozen at −20° C. Sugar concentrations of the samples diluted in 0.005 M H2SO4 were measured after elution from a 4.6×250 mm AMINEX® HPX-87H column (Bio-Rad, Hercules, Calif., USA) by 0.005 M H2SO4 at a flow rate of 0.4 ml/minute at 65° C. with quantitation by integration of glucose and cellobiose using refractive index detection (CHEMSTATION®, AGILENT® 1100 HPLC, Agilent Technologies, Santa Clara, Calif., USA) calibrated with standards of glucose and cellobiose. The resultant equivalents were used to calculate the percentage of cellulose conversion for each reaction.
The degree of cellulose conversion to glucose plus cellobiose (% conversion) was calculated using the following equation:
% Conversion=(glucose+cellobiose×1.053)(mg/ml)×100×162/cellulose(mg/ml)×180)=(glucose+cellobiose×1.053)(mg/ml)×100/(cellulose(mg/ml)×1.111)
In this equation the factor 1.111 reflects the weight gain in converting cellulose to glucose, and the factor 1.053 reflects the weight gain in converting cellobiose to glucose. Cellulose in PCS was determined by a limit digest of PCS to release glucose and cellobiose.

[2] = tested on: Cellulolytic Enzyme Composition #1; experiment: mini-scale PCS hydrolysis by Cellulolytic Enzyme Composition #1; assay type: biochemical, Trichoderma reesei; details: 10 mM FeSO4; 43 g PCS and 0.25 g enzyme per liter, pH 5, 50° C.
Method: The effect of various salts (FeSO4, FeCl2, NaCl, Na2SO4, MnSO4, MnCl2) was determined in the hydrolysis of PCS by Cellulolytic Enzyme Composition #2. The PCS hydrolysis was performed in duplicate in capped 1.7 ml EPPENDORF® tubes (“mini-scale”) containing 1 ml suspensions of 43.4 g of PCS (dry weight) per liter, 10 mM salts in 50 mM sodium acetate pH 5. Cellulolytic Enzyme Composition #2 was added at 0.25 g per liter. Reactions without the addition of the salt served as controls. The capped tubes were incubated at 50° C. in an INNOVA® 4080 incubator shaker (New Brunswick Scientific Co., Inc., Edison, N.J., USA) at 150 rpm.
as §1
Example 30 was repeated with both Cellulolytic Enzyme Composition #1 and Cellulolytic Enzyme Composition #2. Soluble reducing sugars were measured by HPLC as described in Example 30. Reactions without the addition of FeSO4 served as controls.
The hydrolysis was performed in a series of duplicate “mini-scale” hydrolysis reactions according to the procedure described in Example 30.

[3] = tested on: Cellulolytic Enzyme Composition #1; experiment: mini-plate-scale PASC hydrolysis by Cellulolytic Enzyme Composition #1; assay type: biochemical, Trichoderma reesei
Method: Various (biologically common) divalent metal cations with variable ionic radii were tested in 2.8 ml Deep Well Microplates (VWR International, West Chester, Pa., USA) (“mini-plate-scale”) containing 1 ml suspensions of 25 g of AVICEL® per liter in 50 mM sodium acetate pH 5 at 50° C. Cellulolytic Enzyme Composition #1 was added at 0.25 g per liter for each hydrolysis. The mini-plates were sealed at 160° C. for 2 seconds using an ABGENE® ALPS 300™ sealer (ABgene, Rochester, N.Y., USA). The sealed mini-plates were incubated at 50° C. in an INNOVA® 4080 incubator shaker at 150 rpm. Soluble reducing sugars were measured by HPLC as described in Example 30.
In one series of “mini-scale” hydrolysis reactions performed according to the procedure described in Example 30, the effect of 1 mM to 10 mM FeSO4 was evaluated in the hydrolysis of AVICEL® by Cellulolytic Enzyme Composition #1. In a series of “mini-plate-scale” hydrolysis reactions performed according to the procedure described in Example 32, the effect of 1 mM to 10 mM FeSO4 was evaluated in the hydrolysis of PASC by Cellulolytic Enzyme Composition #1, except 2 g of PASC and 0.05 g Cellulolytic Enzyme Composition #1 per liter of 50 mM sodium acetate pH 5 were used.
The above study was extended to a range of concentration of Fe(II) and cellulose. In a series of “mini-plate-scale” hydrolysis reactions performed according to the procedure described in Example 32, except that 0.1 to 10 mM FeSO4, 0.6 to 4 g of PASC and 0.01 g of Cellulolytic Enzyme Composition #1 per liter of 50 mM sodium acetate pH 5 were used.

[4] = target: T1, Trichoderma reesei Cel7B endoglucanase I (Trichoderma reesei, UniProt P07981); experiment: PASC hydrolysis by Cel7B endoglucanase I; assay type: biochemical; details: 10 mM FeSO4; 2 g PASC and 40 mg enzyme per liter (FIG. 20C)
T1 construct: made in house; host or cells: Aspergillus oryzae JaL250
T1 sequence (P07981 23-459): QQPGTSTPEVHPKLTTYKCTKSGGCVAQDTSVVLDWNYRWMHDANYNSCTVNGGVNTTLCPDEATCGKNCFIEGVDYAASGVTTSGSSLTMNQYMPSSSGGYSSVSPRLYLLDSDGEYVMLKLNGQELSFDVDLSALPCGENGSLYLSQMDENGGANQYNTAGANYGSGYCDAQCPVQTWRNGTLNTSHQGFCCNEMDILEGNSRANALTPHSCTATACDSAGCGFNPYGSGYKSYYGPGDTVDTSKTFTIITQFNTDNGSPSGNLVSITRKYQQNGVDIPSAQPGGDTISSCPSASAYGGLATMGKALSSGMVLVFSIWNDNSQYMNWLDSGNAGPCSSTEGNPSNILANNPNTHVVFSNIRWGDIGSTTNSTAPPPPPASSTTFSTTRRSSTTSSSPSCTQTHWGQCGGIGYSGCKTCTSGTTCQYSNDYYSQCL

Ferrous sulfate [FeSO4] was tested, and the “Effect on PCS hydrolysis” value ([1]; 10 mM salt, 43.4 g PCS and 0.25 g enzyme per liter, 50 mM sodium acetate pH 5, 50° C.) was “significant inhibition; also recorded: significantly inhibited”, the “Effect on the cellulases” value ([1]; 0.1 and 1 mM) was “did not significantly affect” and the “Effect on PCS hydrolysis” value [2] was “significantly inhibited”. For the same substance, the “Concentration dependence of inhibition” value ([3]; 1 mM to 10 mM FeSO4, PASC (FIG. 19C)) was “increasingly inhibitory”, the “Type of inhibition (double-reciprocal plots)” value ([3]; 0.1 to 10 mM FeSO4, 0.6 to 4 g PASC, 0.01 g enzyme per liter) was “mix-type inhibition” and the Ki ([3]; on PASC, 2 g PASC and 0.05 g enzyme per liter, read-out: Ki (x-intercept of Dixon plot)) was roughly 14 mM. The Effect on enzyme [4] was “significantly inhibited”.

— patent US20090130707A1, “Methods of reducing the inhibitory effect of a redox active metal ion on the enzymatic hydrolysis of cellulosic material” (priority 2007, published 2009)
